System: REV1 CTD-REV7 interaction
Assay: ELISA assay probing the REV1 CTD-REV7 interaction
Type: binding, mouse
Details: ratio of test compound IC50 to RE01 IC50
Protocol: The ELISA assay for probing the REV1 CTD-REV7 interaction was carried out by immobilizing 50 nM His8-tagged REV7/3 in 200 μL phosphate-buffered saline (PBS, Gibco) containing 0.2% BSA in a Ni-NTA coated 96-well plate (HisSorb, Qiagen) for 30 minutes. Unbound His8-tagged REV7/3 was removed by washing the wells four times with PBS containing 0.05% Tween-20. […] After incubation for 30 minutes, the wells were washed four times with PBS containing 0.05% Tween-20 to remove the unbound FLAG-tagged POL κ RIR-REV1 CTD. A solution of the anti-FLAG horseradish peroxidase (HRP)-conjugated antibody (Sigma-Aldrich) in PBS containing 0.2% BSA was then added to the wells. After incubating for 1 hour, the antibody was washed off four times with PBS containing 0.05% Tween-20. The 3,3′,5,5′-tetramethylbenzedine (TMB) substrate (SureBlue TMB, Seracare) was added to the wells. After incubation of 20-30 minutes, the reaction was quenched with 1 M HCl. A SpectraMax plate reader (Molecular Devices) was used to measure absorbance at 450 nm.

Row | Structure (SMILES) | Relative IC50 Ratio
1 | CC(C)CC(=O)c1c(Nc2ccc(Br)cc2Br)[nH]c2c(Cl)ccc([N+](=O)[O-])c2c1=O [RE04, 8-chloro-2-((2,4-dibromophenyl)amino)-3-(3-methylbutanoyl)-5-nitroquinolin-4(1H)-one] | B (B represents a ratio of test compound IC50 so to RE1 IC50 between 0.8 and 1.5)
2 | CC(C)CC(=O)c1c(Nc2ccc(C(=O)O)cc2Cl)[nH]c2c(Cl)ccc([N+](=O)[O-])c2c1=O [RE06, 3-chloro-4-((8-chloro-3-(3-methylbutanoyl)-5-nitro-4-oxo-1,4-dihydroquinolin-2-yl)amino)benzoic acid] | C (C represents a ratio of test compound IC50 to RE01 IC50 between 1.5-10)
3 | CC(C)CC(=O)c1c(Nc2ccc(Cl)cc2Cl)[nH]c2c(C(=O)O)ccc(Cl)c2c1=O [RE08, 5-chloro-2-((2,4-dichlorophenyl)amino)-3-(3-methylbutanoyl)-4-oxo-1,4-dihydroquinoline-8-carboxylic acid] | B (B represents a ratio of test compound IC50 so to RE1 IC50 between 0.8 and 1.5)
4 | CC(C)CC(=O)c1c(Nc2ccc(Cl)cc2Cl)[nH]c2c(Cl)ccc(C(=O)O)c2c1=O [RE09, 8-chloro-2-((2,4-dichlorophenyl)amino)-3-(3-methylbutanoyl)-4-oxo-1,4-dihydroquinoline-5-carboxylic acid] | B (B represents a ratio of test compound IC50 so to RE1 IC50 between 0.8 and 1.5)
5 | CC(C)CC(=O)c1c(Nc2ccc(Cl)cc2Cl)[nH]c2c(C(=O)O)ccc([N+](=O)[O-])c2c1=O [RE10, 2-((2,4-dichlorophenyl)amino)-3-(3-methylbutanoyl)-5-nitro-4-oxo-1,4-dihydroquinoline-8-carboxylic acid] | B (B represents a ratio of test compound IC50 so to RE1 IC50 between 0.8 and 1.5)
6 | CC(C)CC(=O)c1c(Nc2ccc(Cl)cc2Cl)[nH]c2c(Cl)ccc(N)c2c1=O [RE11, 5-amino-8-chloro-2-((2,4-dichlorophenyl)amino)-3-(3-methylbutanoyl)quinolin-4(1H)-one] | C (C represents a ratio of test compound IC50 to RE01 IC50 between 1.5-10)
7 | CC(=O)c1c(Nc2ccc(Cl)cc2Cl)[nH]c2c(Cl)ccc([N+](=O)[O-])c2c1=O [RE12, 3-acetyl-8-chloro-2-((2,4-dichlorophenyl)amino)-5-nitroquinolin-4(1H)-one] | B (B represents a ratio of test compound IC50 so to RE1 IC50 between 0.8 and 1.5)
8 | O=C(O)/C(O)=C/C(=O)c1c(Nc2ccc(Cl)cc2Cl)[nH]c2c(Cl)ccc([N+](=O)[O-])c2c1=O [RE13, (Z)-4-(8-chloro-2-((2,4-dichlorophenyl)amino)-5-nitro-4-oxo-1,4-dihydroquinolin-3-yl)-2-hydroxy-4-oxobut-2-enoic acid] | A (A represents a ratio of test compound IC50 to RE01 IC50 of less than 0.8)
9 | CC(=NO)c1c(Nc2ccc(Cl)cc2Cl)[nH]c2c(Cl)ccc([N+](=O)[O-])c2c1=O [RE14, 8-chloro-2-((2,4-dichlorophenyl)amino)-3-(1-(hydroxyimino)ethyl)-5-nitroquinolin-4(1H)-one] | B (B represents a ratio of test compound IC50 so to RE1 IC50 between 0.8 and 1.5)
10 | CC(O)c1c(Nc2ccc(Cl)cc2Cl)[nH]c2c(Cl)ccc([N+](=O)[O-])c2c1=O (stereo not shown) [RE15, 8-chloro-2-((2,4-dichlorophenyl)amino)-3-(1-hydroxyethyl)-5-nitroquinolin-4(1H)-one] | B (B represents a ratio of test compound IC50 so to RE1 IC50 between 0.8 and 1.5)
11 | CC(C)CC(=O)c1c(Nc2ccccc2)[nH]c2c(Cl)ccc([N+](=O)[O-])c2c1=O [RE16, 8-chloro-3-(3-methylbutanoyl)-5-nitro-2-(phenylamino)quinolin-4(1H)-one] | C (C represents a ratio of test compound IC50 to RE01 IC50 between 1.5-10)
12 | CC(C)CC(=O)c1c(Nc2ccc(I)cc2I)[nH]c2c(Cl)ccc([N+](=O)[O-])c2c1=O [RE17, 8-chloro-2-((2,4-diiodophenyl)amino)-3-(3-methylbutanoyl)-5-nitroquinolin-4(1H)-one] | B (B represents a ratio of test compound IC50 so to RE1 IC50 between 0.8 and 1.5)
13 | CC(C)CC(=O)c1c(Nc2ccc(Cl)cc2C(F)(F)F)[nH]c2c(Cl)ccc([N+](=O)[O-])c2c1=O [RE18, 8-chloro-2-((4-chloro-2-(trifluoromethyl)phenyl)amino)-3-(3-methylbutanoyl)-5-nitroquinolin-4(1H)-one] | A (A represents a ratio of test compound IC50 to RE01 IC50 of less than 0.8)
14 | CC(C)CC(=O)c1c(Nc2ccc3ccccc3c2)[nH]c2c(Cl)ccc([N+](=O)[O-])c2c1=O [RE19, 8-chloro-3-(3-methylbutanoyl)-2-(naphthalen-2-ylamino)-5-nitroquinolin-4(1H)-one] | B (B represents a ratio of test compound IC50 so to RE1 IC50 between 0.8 and 1.5)
15 | CC(C)CC(=O)c1c(Nc2ccc(Cl)cc2)[nH]c2c(Cl)ccc([N+](=O)[O-])c2c1=O [RE20, 8-chloro-2-((4-chlorophenyl)amino)-3-(3-methylbutanoyl)-5-nitroquinolin-4(1H)-one] | C (C represents a ratio of test compound IC50 to RE01 IC50 between 1.5-10)
16 | CC(C)CC(=O)c1c(Nc2ccc(C(C)C)cc2)[nH]c2c(Cl)ccc([N+](=O)[O-])c2c1=O [RE21, 8-chloro-2-((4-isopropylphenyl)amino)-3-(3-methylbutanoyl)-5-nitroquinolin-4(1H)-one] | C (C represents a ratio of test compound IC50 to RE01 IC50 between 1.5-10)
17 | Cc1ccc(Nc2[nH]c3c(Cl)ccc([N+](=O)[O-])c3c(=O)c2C(=O)CC(C)C)c(C)c1 [RE22, 8-chloro-2-((2,4-dimethylphenyl)amino)-3-(3-methylbutanoyl)-5-nitroquinolin-4(1H)-one] | C (C represents a ratio of test compound IC50 to RE01 IC50 between 1.5-10)
18 | CC(C)CC(=O)c1c(Nc2ccccc2Cl)[nH]c2c(Cl)ccc([N+](=O)[O-])c2c1=O [RE23, 8-chloro-2-((2-chlorophenyl)amino)-3-(3-methylbutanoyl)-5-nitroquinolin-4(1H)-one] | B (B represents a ratio of test compound IC50 so to RE1 IC50 between 0.8 and 1.5)
19 | CC(C)CC(=O)c1c(Nc2ccc(F)cc2F)[nH]c2c(Cl)ccc([N+](=O)[O-])c2c1=O [RE24, 8-chloro-2-((2,4-difluorophenyl)amino)-3-(3-methylbutanoyl)-5-nitroquinolin-4(1H)-one] | C (C represents a ratio of test compound IC50 to RE01 IC50 between 1.5-10)
20 | CC(C)CC(=O)c1c(Nc2ccc(Cl)cc2Cl)[nH]c2c(Cl)cccc2c1=O [RE25, 8-chloro-2-((2,4-dichlorophenyl)amino)-3-(3-methylbutanoyl)quinolin-4(1H)-one] | C (C represents a ratio of test compound IC50 to RE01 IC50 between 1.5-10)
21 | CC(C)CC(=O)c1c(Nc2ccc(Cl)cc2Cl)[nH]c2c(Cl)ccc(C(F)(F)F)c2c1=O [RE26, 8-chloro-2-((2,4-dichlorophenyl)amino)-3-(3-methylbutanoyl)-5-(trifluoromethyl)quinolin-4(1H)-one] | C (C represents a ratio of test compound IC50 to RE01 IC50 between 1.5-10)
22 | Cc1ccc(Cl)c2[nH]c(Nc3ccc(Cl)cc3Cl)c(C(=O)CC(C)C)c(=O)c12 [RE27, 8-chloro-2-((2,4-dichlorophenyl)amino)-5-methyl-3-(3-methylbutanoyl)quinolin-4(1H)-one] | C (C represents a ratio of test compound IC50 to RE01 IC50 between 1.5-10)
23 | CC(C)CC(=O)c1c(Nc2ccc(Cl)cc2Cl)[nH]c2ccccc2c1=O [RE28, 2-((2,4-dichlorophenyl)amino)-3-(3-methylbutanoyl)quinolin-4(1H)-one] | A (A represents a ratio of test compound IC50 to RE01 IC50 of less than 0.8)
24 | COc1ccc(Cl)c2[nH]c(Nc3ccc(Cl)cc3Cl)c(C(=O)CC(C)C)c(=O)c12 [RE29, 8-chloro-2-((2,4-dichlorophenyl)amino)-5-methoxy-3-(3-methylbutanoyl)quinolin-4(1H)-one] | A (A represents a ratio of test compound IC50 to RE01 IC50 of less than 0.8)
25 | CC(C)CC(=O)c1c(Nc2ccc(Cl)cc2Cl)[nH]c2c(Cl)ccc(O)c2c1=O [RE30, 8-chloro-2-((2,4-dichlorophenyl)amino)-5-hydroxy-3-(3-methylbutanoyl)quinolin-4(1H)-one] | C (C represents a ratio of test compound IC50 to RE01 IC50 between 1.5-10)
26 | CC(C)CC(=O)c1c(Nc2ccc(Cl)c(Cl)c2)[nH]c2c(Cl)ccc([N+](=O)[O-])c2c1=O [RE31, 8-chloro-2-((3,4-dichlorophenyl)amino)-3-(3-methylbutanoyl)-5-nitroquinolin-4(1H)-one] | C (C represents a ratio of test compound IC50 to RE01 IC50 between 1.5-10)
27 | CC(C)CC(=O)c1c(Nc2c(F)cc(F)cc2F)[nH]c2c(Cl)ccc([N+](=O)[O-])c2c1=O [RE33, 8-chloro-3-(3-methylbutanoyl)-5-nitro-2-((2,4,6-trifluorophenyl)amino)quinolin-4(1H)-one] | C (C represents a ratio of test compound IC50 to RE01 IC50 between 1.5-10)
28 | CC(C)CC(=O)c1c(Nc2ccc(Cl)cc2Cl)[nH]c2c(Cl)cc([N+](=O)[O-])cc2c1=O [RE34, 8-chloro-2-((2,4-dichlorophenyl)amino)-3-(3-methylbutanoyl)-6-nitroquinolin-4(1H)-one] | A (A represents a ratio of test compound IC50 to RE01 IC50 of less than 0.8)

Reference: patent publication US11801242B2, “Compositions and methods for adjuvant cancer therapeutics” (DUKE UNIVERSITY, priority 2018, dated 2023)
